According to US20170190671A1, “BIS(ARYL)CATECHOL DERIVATIVES AS HERBICIDES” (E I DU PONT DE NEMOURS AND COMPANY, priority 2014, published 2017):

Columns and labels:
Assay type in all cases: in vivo
[1] = tested on: Italian ryegrass (Lolium multiflorum); experiment: Test A preemergence; settings: Lolium multiflorum, pre-emergence, 240 h
Outline: (§1)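 Compounds in non-phytotoxic solvent with surfactant applied as soil spray preemergence, or postemergence to plants 2-10 cm at one- to two-leaf stage, in loam/sand. After approximately 10 days in greenhouse, injury rated visually versus untreated controls, 0 (no effect) to 100 (complete control).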

[2] = tested on: giant foxtail (Setaria faberii); experiment: Test A preemergence; settings: Setaria faberi, pre-emergence, 240 h
Outline: as §1

[3] = tested on: barnyardgrass (Echinochloa crus-galli); experiment: Test A preemergence; settings: Echinochloa crus-galli, pre-emergence, 240 h
Outline: as §1

[4] = tested on: ragweed (common ragweed, Ambrosia elatior); experiment: Test A preemergence; settings: Ambrosia artemisiifolia, pre-emergence, 240 h
Outline: as §1

[5] = tested on: pigweed (Amaranthus retroflexus); experiment: Test A preemergence; settings: Amaranthus retroflexus, pre-emergence, 240 h
Outline: as §1

kochia (Kochia scoparia) [6] = experiment: Test A preemergence; settings: Bassia scoparia, pre-emergence, 240 h
Outline: as §1

[7] = tested on: Italian ryegrass (Lolium multiflorum); experiment: Test C preemergence; settings: Lolium multiflorum, pre-emergence, 336 h, scale 0 to 100, read-out: Plant response rating, Ryegrass, Italian
Outline: (§2)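 Greenhouse test; preemergence on seeded loam-sand soil or spray on 1- to 4-leaf plants; solvent + surfactant vehicle; 13-15 day hold; visual comparison with controls; 0 (no effect)-100 (complete control).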

[8] = tested on: waterhemp (common waterhemp, Amaranthus rudis); experiment: Test C preemergence; settings: Amaranthus tuberculatus, pre-emergence, scale 0 to 100, read-out: Plant response rating, Waterhemp
Outline: as §2

[9] = tested on: barnyardgrass (Echinochloa crus-galli); experiment: Test B flooded paddy; settings: Echinochloa crus-galli, 336 h; 250 g ai/ha, Flood, 13 to 15 days, scale 0 (no effect) to 100 (complete control); read-out: Plant response rating, Barnyardgrass
Outline: (§3)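 Ratings were visual and made relative to untreated controls after 13 to 15 greenhouse days.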

rice (Oryza sativa) = experiment: Test B flooded paddy; settings: Oryza sativa, 336 h; 250 g ai/ha, Flood, 13 to 15 days, scale 0 (no effect) to 100 (complete control); read-out: Plant response rating, Rice
Outline: as §3

[10] = tested on: sedge, umbrella (small-flower umbrella sedge, Cyperus difformis); experiment: Test B flooded paddy; settings: Cyperus difformis, 336 h; 250 g ai/ha, Flood, 13 to 15 days, scale 0 (no effect) to 100 (complete control); read-out: Plant response rating, Sedge, Umbrella
Outline: as §3

[11] = tested on: ducksalad (Heteranthera limosa); experiment: Test B flooded paddy; settings: Heteranthera limosa, 336 h; 250 g ai/ha, Flood, 13 to 15 days, scale 0 (no effect) to 100 (complete control); read-out: Plant response rating, Ducksalad
Outline: as §3

[12] = tested on: Italian ryegrass (Lolium multiflorum); experiment: Test A postemergence; settings: Lolium multiflorum, post-emergence, 240 h, 0 to 100 scale, read-out: Plant response rating, Ryegrass, Italian
Outline: as §1

[13] = tested on: blackgrass (Alopecurus myosuroides); experiment: Test A postemergence; settings: Alopecurus myosuroides, post-emergence, 240 h, 0 to 100 scale, read-out: Plant response rating, Blackgrass
Outline: as §1

corn (Zea mays) = experiment: Test A postemergence; settings: Zea mays, post-emergence, 240 h, 0 to 100 scale
Outline: as §1

[14] = tested on: wheat (Triticum aestivum); experiment: Test A postemergence; settings: Triticum aestivum, post-emergence, 240 h, 0 to 100 scale, read-out: Plant response rating, Wheat
Outline: as §1

[15] = tested on: giant foxtail (Setaria faberii); experiment: Test A postemergence; settings: Setaria faberi, post-emergence, 240 h, 0 to 100 scale, read-out: Plant response rating, Foxtail, Giant
Outline: as §1

[16] = tested on: barnyardgrass (Echinochloa crus-galli); experiment: Test A postemergence; settings: Echinochloa crus-galli, post-emergence, 240 h, 0 to 100 scale, read-out: Plant response rating, Barnyardgrass
Outline: as §1

[17] = tested on: ragweed (common ragweed, Ambrosia elatior); experiment: Test A postemergence; settings: Ambrosia artemisiifolia, post-emergence, 240 h, 0 to 100 scale, read-out: Plant response rating, Ragweed
Outline: as §1

[18] = tested on: galium (catchweed bedstraw, Galium aparine); experiment: Test A postemergence; settings: Galium, post-emergence, 240 h, 0 to 100 scale, read-out: Plant response rating, Galium
Outline: as §1

[19] = tested on: pigweed (Amaranthus retroflexus); experiment: Test A postemergence; settings: Amaranthus retroflexus, post-emergence, 240 h, 0 to 100 scale, read-out: Plant response rating, Pigweed
Outline: as §1

kochia (Kochia scoparia) [20] = experiment: Test A postemergence; settings: Bassia scoparia, post-emergence, 240 h, 0 to 100 scale, read-out: Plant response rating, Kochia
Outline: as §1

Question: With Fc1cccc(Oc2ncc(Cl)cn2)c1Oc1ncc(C(F)(F)F)cn1 [Compound 43, 5-chloro-2-[5-fluoro-6-[[5-(trifluoromethyl)-2-pyrimidinyl]oxy]phenoxy]pyrimidine] as the compound, how does the pest or weed control at 125 g/ha ([1]; 125 g ai/ha, 0 to 100 scale (0 no effect, 100 complete control), read-out: Ryegrass, Italian plant response rating) read?
Answer: 50%

Question: And the pest or weed control at 500 g/ha ([1]; 500 g ai/ha, 0 to 100 scale, read-out: Plant response rating, Ryegrass, Italian)?
Answer: 100%

Question: And the pest or weed control at 125 g/ha ([2]; 125 g ai/ha, 0 to 100 scale (0 no effect, 100 complete control), read-out: Foxtail, Giant plant response rating)?
Answer: 100%

Question: And the pest or weed control at 500 g/ha ([2]; 500 g ai/ha, 0 to 100 scale, read-out: Plant response rating, Foxtail, Giant)?
Answer: 100%

Question: And the pest or weed control at 125 g/ha ([3]; 125 g ai/ha, 0 to 100 scale (0 no effect, 100 complete control), read-out: Barnyardgrass plant response rating)?
Answer: 100%

Question: And the pest or weed control at 500 g/ha ([3]; 500 g ai/ha, 0 to 100 scale, read-out: Plant response rating, Barnyardgrass)?
Answer: 100%

Question: What about the pest or weed control at 125 g/ha ([4]; 125 g ai/ha, 0 to 100 scale (0 no effect, 100 complete control), read-out: Ragweed plant response rating) of the same compound?
Answer: 70%

Question: What about the pest or weed control at 500 g/ha ([4]; 500 g ai/ha, 0 to 100 scale, read-out: Plant response rating, Ragweed) of the same compound?
Answer: 100%

Question: What about the pest or weed control at 125 g/ha ([5]; 125 g ai/ha, 0 to 100 scale (0 no effect, 100 complete control), read-out: Pigweed plant response rating) of the same compound?
Answer: 100%

Question: And the pest or weed control at 500 g/ha ([5]; 500 g ai/ha, 0 to 100 scale, read-out: Plant response rating, Pigweed)?
Answer: 100%

Question: And the pest or weed control at 125 g/ha (kochia (Kochia scoparia) [6]; 125 g ai/ha, 0 to 100 scale (0 no effect, 100 complete control), read-out: Kochia plant response rating)?
Answer: 100%

Question: And the pest or weed control at 500 g/ha (kochia (Kochia scoparia) [6]; 500 g ai/ha, 0 to 100 scale, read-out: Plant response rating, Kochia)?
Answer: 100%

Question: And the pest or weed control at 31 g/ha ([7]; 31 g ai/ha, preemergence)?
Answer: 50%

Question: And the pest or weed control at 62 g/ha ([7]; 62 g ai/ha, preemergence)?
Answer: 85%

Question: And the pest or weed control at 125 g/ha ([7]; 125 g ai/ha, preemergence)?
Answer: 95%

Question: What about the pest or weed control at 16 g/ha ([7]; Preemergence, 16 g ai/ha) of the same compound?
Answer: 5%

Question: What about the pest or weed control at 31 g/ha ([8]; 31 g ai/ha, preemergence) of the same compound?
Answer: 100%

Question: And the pest or weed control at 62 g/ha ([8]; 62 g ai/ha, preemergence)?
Answer: 100%

Question: What about the pest or weed control at 125 g/ha ([8]; 125 g ai/ha, preemergence) of the same compound?
Answer: 100%

Question: What about the pest or weed control at 16 g/ha ([8]; Preemergence, 16 g ai/ha) of the same compound?
Answer: 85%

Question: And the pest or weed control at 250 g/ha [9]?
Answer: 85%

Question: And the plant injury at 250 g/ha (rice (Oryza sativa))?
Answer: 60%

Question: What about the pest or weed control at 250 g/ha [10] of the same compound?
Answer: 90%

Question: And the pest or weed control at 250 g/ha [11]?
Answer: 100%

Question: And the pest or weed control at 125 g/ha ([12]; 125 g ai/ha)?
Answer: 80%

Question: And the pest or weed control at 500 g/ha ([12]; 500 g ai/ha)?
Answer: 100%

Question: And the pest or weed control at 125 g/ha ([13]; 125 g ai/ha)?
Answer: 90%

Question: What about the pest or weed control at 500 g/ha ([13]; 500 g ai/ha) of the same compound?
Answer: 100%

Question: And the Corn plant response rating (crop injury, 0 = no effect, 100 = complete kill) at 125 g/ha (corn (Zea mays); 125 g ai/ha)?
Answer: 70%

Question: And the Corn plant response rating (crop injury, 0 = no effect, 100 = complete kill) at 500 g/ha (corn (Zea mays); 500 g ai/ha)?
Answer: 100%

Question: And the plant injury at 125 g/ha ([14]; 125 g ai/ha)?
Answer: 80%

Question: What about the plant injury at 500 g/ha ([14]; 500 g ai/ha) of the same compound?
Answer: 100%

Question: And the pest or weed control at 125 g/ha ([15]; 125 g ai/ha)?
Answer: 90%

Question: And the pest or weed control at 500 g/ha ([15]; 500 g ai/ha)?
Answer: 100%

Question: What about the pest or weed control at 125 g/ha ([16]; 125 g ai/ha) of the same compound?
Answer: 90%

Question: What about the pest or weed control at 500 g/ha ([16]; 500 g ai/ha) of the same compound?
Answer: 100%

Question: And the pest or weed control at 125 g/ha ([17]; 125 g ai/ha)?
Answer: 70%

Question: And the pest or weed control at 500 g/ha ([17]; 500 g ai/ha)?
Answer: 100%

Question: And the pest or weed control at 125 g/ha ([18]; 125 g ai/ha)?
Answer: 100%

Question: And the pest or weed control at 500 g/ha ([18]; 500 g ai/ha)?
Answer: 100%

Question: What about the pest or weed control at 125 g/ha ([19]; 125 g ai/ha) of the same compound?
Answer: 100%

Question: And the pest or weed control at 500 g/ha ([19]; 500 g ai/ha)?
Answer: 100%

Question: What about the pest or weed control at 125 g/ha (kochia (Kochia scoparia) [20]; 125 g ai/ha) of the same compound?
Answer: 100%

Question: And the pest or weed control at 500 g/ha (kochia (Kochia scoparia) [20]; 500 g ai/ha)?
Answer: 100%
